Experimental data from patent publication US20020069423A1 (priority 2000, published 2002).

Tests used:
PrP^ac [1] = target: PrP^ac (Mus musculus, UniProt P04925); settings: cell culture; not tested in animal models; cited from earlier work
PrP^ac [2] = target: PrP^ac (Mesocricetus auratus, UniProt P04273); settings: scrapie-infected hamsters, controlled study; cited from earlier work
[3] = tested on: untransfected bovine fetal fibroblasts (BFF cells); assay type: cell-based

Sequence of PrP^ac (Mus musculus, UniProt P04925) (P04925 23-230 limits assumed): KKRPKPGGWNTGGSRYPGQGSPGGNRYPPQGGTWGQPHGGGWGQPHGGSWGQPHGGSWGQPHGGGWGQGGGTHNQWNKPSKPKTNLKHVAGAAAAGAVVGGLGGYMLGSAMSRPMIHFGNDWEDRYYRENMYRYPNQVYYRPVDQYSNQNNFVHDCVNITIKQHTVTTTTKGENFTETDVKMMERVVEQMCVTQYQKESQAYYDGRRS
Sequence of PrP^ac (Mesocricetus auratus, UniProt P04273) (P04273 23-231 limits assumed): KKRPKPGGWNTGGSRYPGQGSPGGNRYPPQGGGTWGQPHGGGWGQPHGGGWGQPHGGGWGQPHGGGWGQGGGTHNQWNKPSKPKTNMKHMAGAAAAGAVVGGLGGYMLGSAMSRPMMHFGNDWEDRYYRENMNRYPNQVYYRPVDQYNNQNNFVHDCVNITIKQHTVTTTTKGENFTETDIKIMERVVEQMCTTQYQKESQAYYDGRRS

pentosan polysulfate
effect on accumulation of PrP^ac (PrP^ac [1]): prevent accumulation of PrP^ac

C[C@@H]1[C@H](O)[C@@H](C)/C=C/C=C/C=C/C=C/C=C/C=C/C=C/[C@H](O[C@@H]2O[C@H](C)[C@@H](O)[C@H](N)[C@@H]2O)C[C@@H]2O[C@](O)(C[C@@H](O)C[C@@H](O)[C@H](O)CC[C@@H](O)C[C@@H](O)CC(=O)O[C@H]1C)C[C@H](O)[C@H]2C(=O)O [amphotericin B]
effect on accumulation of PrP^ac (PrP^ac [2]): delayed the accumulation of PrP^ac

Nc1c(/N=N/c2ccc(-c3ccc(/N=N/c4cc(S(=O)(=O)O)c5ccccc5c4N)cc3)cc2)cc(S(=O)(=O)O)c2ccccc12 [Congo red]
effect on accumulation of PrP^ac (PrP^ac [1]): prevent accumulation of PrP^ac

CN[C@@H]1[C@@H](O)[C@@H](O[C@@H]2[C@@H](O)[C@H](O[C@H]3O[C@H]([C@@H](C)O)[C@@H](O)[C@H](O)[C@H]3N)[C@@H](N)C[C@H]2N)OC[C@]1(C)O [G418, geneticin (G418)]
concentration sufficient to kill non-neomycin containing BFF cells but allow rapid growth of BFF cells with transfected neomycin gene [3]: 400 µg/mL | concentration that will sufficiently kill non-neomycin containing BEF cells but allow proliferation of cells with transfected neomycin gene [3]: 400 µg/mL | lag time in drug selection [3]: approximately 3 days | time of drug selection until BFF cells were dead [3]: ≤ 3 days
